Values of other authors, collected in patent publication US20110008439A1, “DULOXETIN COMPOSITION” (priority 2006, published 2011).

Settings: pH values less than 2.5

In the case of `CNCC[C@H](Oc1cccc2ccccc12)c1cccs1` [Duloxetine, duloxetine], the Stability in solution is given as “unstable”.
